We go through 25 compounds from US7179823B1, “5-membered n-heterocyclic compounds with hypoglycemic and hypolipidemic activity” (Takeda Pharmaceutical Company Limited, priority 1999, dated 2007).

Consider `O=C(O)CCc1cn(Cc2ccc(OCc3ccc(-c4ccccc4)cn3)cc2)cc1-c1ccccc1` [Example 279, 3-[1-[4-(5-phenyl-2-pyridylmethoxy)benzyl]-4-phenyl-3-pyrrolyl]propionic acid], for which the melting point fell in the range of 169 to 170 °C. In the case of `CCOC(=O)c1cn(Cc2ccc(OCc3ccccc3)cc2)nc1-c1ccc(F)cc1` [Example 280, ethyl 1-(4-benzyloxybenzyl)-3-(4-fluorophenyl)-1H-pyrazole-4-carboxylate], the melting point was in the range of 103 to 104 °C. `CCOC(=O)/C=C/c1cn(Cc2ccc(OCc3ccccc3)cc2)nc1-c1ccc(F)cc1` [Example 281, ethyl (E)-3-[1-(4-benzyloxybenzyl)-3-(4-fluorophenyl)-1H-pyrazol-4-yl]propenoate] displayed a melting point of 113 to 114 °C. `CCOC(=O)/C=C/c1cn(Cc2ccc(OCc3ccccc3)cc2)nc1-c1ccccc1` [Example 284, ethyl (E)-3-[1-(4-benzyloxybenzyl)-3-phenyl-1H-pyrazol-4-yl]propenoate]: the melting point is 94 to 95 °C.

Compound `O=C(O)CCc1cn(Cc2ccc(OCc3ccc4ccccc4n3)cc2)nc1-c1ccccc1` [Example 285, 3-[3-phenyl-1-[4-(2-quinolylmethoxy)benzyl]-1H-pyrazol-4-yl]propionic acid] yielded a melting point of 147 to 148 °C. In the case of `O=C(O)CCc1cn(Cc2ccc(OCCn3ncc4ccccc4c3=O)cc2)nc1-c1ccccc1` [Example 286, 3-[1-[4-[2-[1-oxophthalazin-2(1H)-yl]ethoxy]benzyl]-3-phenyl-1H-pyrazol-4-yl]propionic acid], the melting point is 155 to 156 °C. `O=C(O)CCc1cn(Cc2ccc(OCc3ccc(-c4ccccc4)nc3)cc2)nc1-c1ccccc1` [Example 288, 3-[3-phenyl-1-[4-(6-phenyl-3-pyridylmethoxy)benzyl]-1H-pyrazol-4-yl]propionic acid] showed a melting point of 155 to 156 °C. On to `O=C(O)CCc1cn(Cc2ccc(OCc3cncc(-c4ccccc4)c3)cc2)nc1-c1ccccc1` [Example 290, 3-[3-phenyl-1-[4-(5-phenyl-3-pyridylmethoxy)benzyl]-1H-pyrazol-4-yl]propionic acid], for which the melting point was 161 to 162 °C.

As to `Cn1c(COc2ccc(Cn3cc(CCC(=O)O)c(-c4ccccc4)n3)cc2)nc2ccccc21` [Example 292, 3-[1-[4-(1-methyl-1H-benzimidazol-2-ylmethoxy)benzyl]-3-phenyl-1H-pyrazol-4-yl]propionic acid], the melting point fell in the range of 225 to 226 °C. For `O=C(O)CCc1cn(Cc2ccc(OCc3ccc4ccccc4n3)cc2)nc1-c1ccc(F)cc1` [Example 294, 3-[3-(4-fluorophenyl)-1-[4-(2-quinolylmethoxy)benzyl]-1H-pyrazol-4-yl]propionic acid] the value was 178 to 179 °C.

On to `O=C(O)CCc1cn(Cc2ccc(OCc3ccc(-c4ccccc4)cn3)cc2)nc1-c1ccc(F)cc1` [Example 296, 3-[3-(4-fluorophenyl)-1-[4-(5-phenyl-2-pyridylmethoxy)benzyl]-1H-pyrazol-4-yl]propionic acid], for which the melting point fell in the range of 162 to 163 °C. For `O=C(O)CCc1cn(Cc2ccc(OCc3ccc4ccccc4n3)nc2)nc1-c1ccccc1` [Example 298, 3-[3-phenyl-1-(6-(2-quinolylmethoxy)-3-pyridylmethyl]-1H-pyrazol-4-yl]propionic acid] the value was 166 to 167 °C. For the compound `CCOC(=O)CCc1cn(Cc2cccnc2OCc2csc(-c3ccccc3)n2)nc1-c1ccccc1` [Example 299, ethyl 3-[3-phenyl-1-[2-(2-phenyl-4-thiazolylmethoxy)-3-pyridylmethyl]-1H-pyrazol-4-yl]propionate], the melting point was 88 to 89 °C. `O=C(O)CCc1cn(Cc2ccc(OCc3csc(-c4ccccc4)n3)nc2)nc1-c1ccccc1` [Example 300, 3-[3-phenyl-1-[6-(2-phenyl-4-thiazolylmethoxy)-3-pyridylmethyl]-1H-pyrazol-4-yl]propionic acid] registered a melting point of 107 to 108 °C. On to `O=C(O)CCc1cn(Cc2ccc(OCc3ccc(-c4ccccc4)cn3)cc2)nc1-c1ccccc1` [Example 302, 3-[3-phenyl-1-[4-(5-phenyl-2-pyridylmethoxy)benzyl]-1H-pyrazol-4-yl]propionic acid], for which the melting point fell in the range of 149 to 150 °C. `O=C(O)CCc1cn(Cc2ccc(OCc3csc(-c4ccccc4)n3)cc2)nc1-c1ccccc1` [Example 304, 3-[3-phenyl-1-[4-(2-phenyl-4-thiazolylmethoxy)benzyl]-1H-pyrazol-4-yl]propionic acid] came in with a melting point of 132 to 133 °C. As to `Cc1oc(-c2ccccc2)nc1COc1ccc(Cn2cc(CCC(=O)O)c(-c3ccccc3)n2)nc1` [Example 306, 3-[1-[5-(5-methyl-2-phenyl-4-oxazolylmethoxy)-2-pyridylmethyl]-3-phenyl-1H-pyrazol-4-yl]propionic acid], the melting point fell in the range of 175 to 176 °C. As for `Cc1oc(-c2ccccc2)nc1COc1ccc(Cn2cc(CC(=O)O)c(-c3ccccc3)n2)cn1` [Example 308, [1-[6-(5-methyl-2-phenyl-4-oxazolylmethoxy)-3-pyridylmethyl]-3-phenyl-1H-pyrazol-4-yl]acetic acid], the figure is 144 to 145 °C; as for `CCOC(=O)Cc1cn(Cc2ccc(OCc3csc(-c4ccccc4)n3)nc2)nc1-c1ccccc1` [Example 309, ethyl(3-phenyl-1-[6-(2-phenyl-4-thiazolylmethoxy)-3-pyridylmethyl]-1H-pyrazol-4-yl]acetate], 75 to 76 °C; as for `O=C(O)Cc1cn(Cc2ccc(OCc3csc(-c4ccccc4)n3)nc2)nc1-c1ccccc1` [Example 310, [3-phenyl-1-[6-(2-phenyl-4-thiazolylmethoxy)-3-pyridylmethyl]-1H-pyrazol-4-yl]acetic acid], 118 to 119 °C.

Compound `Cc1sc(-c2ccccc2)nc1COc1ccc(Cn2cc(CC(=O)O)c(-c3ccccc3)n2)cn1` [Example 312, [1-[6-(5-methyl-2-phenyl-4-thiazolylmethoxy)-3-pyridylmethyl]-3-phenyl-1H-pyrazol-4-yl]acetic acid] yielded a melting point of 140 to 141 °C. In the case of `Cc1oc(-c2ccccc2)nc1CCOc1ccc(Cn2cc(CC(=O)O)c(-c3ccccc3)n2)cn1` [Example 314, [1-[6-[2-(5-methyl-2-phenyl-4-oxazolyl)ethoxy]-3-pyridylmethyl]-3-phenyl-1H-pyrazol-4-yl]acetic acid], the melting point lay within 148 to 149 °C. `Cc1oc(-c2ccco2)nc1COc1ccc(Cn2cc(CC(=O)O)c(-c3ccccc3)n2)cn1` [Example 316, [1-[6-[2-(2-furyl)-5-methyl-4-oxazolylmethoxy]-3-pyridylmethyl]-3-phenyl-1H-pyrazol-4-yl]acetic acid]: the melting point was 135 to 136 °C.

Consider `O=C(O)Cc1cn(Cc2ccc(OCc3ccccc3)cc2)nc1-c1ccc(F)cc1` [Example 317, [1-(4-benzyloxybenzyl)-3-(4-fluorophenyl)-1H-pyrazol-4-yl]acetic acid], for which the melting point lay in the range of 194 to 195 °C. For `COC(=O)Cc1cn(Cc2ccc(OCc3ccccc3)cc2)nc1-c1ccc(F)cc1` [Example 318, methyl [1-(4-benzyloxybenzyl)-3-(4-fluorophenyl)-1H-pyrazol-4-yl]acetate] the value was 58 to 59 °C.
